Experimental data taken from patent US8975289B2, “Benzyl aralkyl ether compounds, method for preparing same, intermediate compounds, use of said compounds, method for treatment and/or prevention, pharmaceutical composition and medicament containing same” (priority 2009, dated 2015).
Converted amounts (≈) assume the structure as drawn.

Tests used:
Format in all cases: cell-based
[1] = tested on: Trichophyton mentagrophytes 2; assay: Broth microdilution MIC (M38-A), filamentous fungi, strain II
Method: (§1) For the experiments of the present invention, the dermatophyte-type fungi strains that were obtained from clinical isolates and laboratory isolates, as described in Table 2 as follows, were used:
(§2) The fungal strains were grown on agar potato medium in a sloping chute at a temperature of 30° C. for a period of 7 to 15 days.
(§3) For the experiments, the compound 1-[2-(2,4-dichlorophenyl)-2-{[4-(trifluoromethyl)benzyl]oxy}ethyl]-1H-imidazole (BL-123) in the form of its nitrate salt and miconazole nitrate were used. Both compounds were dissolved in dimethyl sulfoxide (DMSO) to match the final concentration of the compound equal to or less than 1%.
(§4) The methodology used to test the sensitivity of the agent was of broth microdilution according to the method described in Standard M38-A (Reference method for broth dilution tests for determining the sensitivity to antifungal therapy for filamentous fungi; NCCLS, volume 22 No. 16, USA, 2008) as follows.
(§5) The fungus was cultivated pursuant to item 4.1. To the tubes wherein the fungi were grown, 5 mL of saline solution were added in order to extract the fungi from the agar surface. Then, this homogeneous suspension was transferred to a new tube and the colony-forming units (CFUs) were quantified according to counting methods: (i) in Sabouraud dextrose agar plates and (ii) in a Neubauer chamber.
(§6) Then, the fungi strains listed in Table 2 were inoculated in duplicate in a 96-well plate. There were used inocula of from 2 to 6×10^3 CFU/mL of fungi, per well, in a total volume of 0.2 mL of RPMI-1640 (containing L-glutamine and without bicarbonate) buffered at pH 7.0 with MOPS (acid 3-(N-morpholine) 15 propanesulfonic). The procedure was performed in a laminar flow.
(§7) The compounds to be tested were added in a serial dilution, in duplicate, in final concentrations of 16 μg/mL; 8 μg/mL; 4 μg/mL; 2 μg/mL; 1 μg/mL; 0.5 μg/mL; 0.25 μg/mL; 0.125 μg/mL; 0.0625 μg/mL; or 0.03125 μg/mL in culture medium present in each well.
(§8) The incubation of fungi with these compounds was performed by 4, 5, 6 and 7 days at temperatures from 30 to 35° C.
(§9) The fungi quantification was carried out with the growth of fungi in each well being compared to the growth occurred in the negative control by means of a mirror reading. The negative control is represented by fungi grown in culture medium in the absence of the tested compounds. The methodology of this comparison is the numerical rating to which the microdilution well was submitted. […]

[2] = tested on: Trichophyton rubrum 28188; assay: Broth microdilution MIC (M38-A), filamentous fungi, strain V
Method: as §1, §2, §3, §4, §5, §6, §7, §8, §9

[3] = tested on: Microsporum canis 373; assay: Broth microdilution MIC (M38-A), filamentous fungi, strain VI
Method: as §1, §2, §3, §4, §5, §6, §7, §8, §9

[4] = tested on: Trichophyton rubrum 455; assay: Broth microdilution MIC (M38-A), filamentous fungi, strain VIII; conditions: for MIC: Trichophyton rubrum; for Resistance or sensitivity of the strain to the agent (in words): clinical isolate strain VIII
Method: as §1, §2, §3, §4, §5, §6, §7, §8
The fungi quantification was carried out with the growth of fungi in each well being compared to the growth occurred in the negative control by means of a mirror reading. The negative control is represented by fungi grown in culture medium in the absence of the tested compounds. The methodology of this comparison is the numerical rating to which the microdilution well was submitted. In this methodology, value 4 corresponds to no reduction of growth, value 3 corresponds to a slight reduction in growth or approximately 75% of the growth of the negative control, value 2 corresponds to a standout reduction in growth or approximately 50% of growth of negative control; value 1 corresponds to a slight growth or approximately 25% of the growth of the negative control, and value 0 corresponds to optically clear or absence of growth.
In this experiment, the minimum inhibitory concentration (MIC) is considered as the lowest concentration of the agent capable of inhibiting at least 80% of the growth of colony-forming units (CFUs).

[5] = tested on: Candida parapsilosis 22019; assay: Broth microdilution MIC (M38-A), filamentous fungi test, strain IX; conditions: 96 h; strain IX 22019, reading Day 4, average of four experiments
Method: as §1, §2, §3, §4
The fungus was cultivated pursuant to item 4.1. […] Then, this homogeneous suspension was transferred to a new tube and the colony-forming units (CFUs) were quantified according to counting methods: (i) in Sabouraud dextrose agar plates and (ii) in a Neubauer chamber. […]
The fungi quantification was carried out with the growth of fungi in each well being compared to the growth occurred in the negative control by means of a mirror reading. […]

[6] = tested on: Candida albicans 10231; assay: Broth microdilution MIC (M27-A2), yeast, strain XIV; conditions: Candida albicans; strain XIV 10231, 48 hours incubation; read-out: MIC
Method: For the experiments of the present invention (i) yeast strains obtained from clinical isolates and laboratory isolates, and (ii) bacterial strains obtained from laboratory isolates were used, as described in Table 5 as follows. The yeast strains were grown in culture medium Sabouraud Dextrose Agar maintained at a temperature of 35° C. for 48 hours. […] The compounds were dissolved in dimethyl sulfoxide (DMSO) to match the final concentration of the compound equal to or less than 1%. The methodology used to test the sensitivity of the agent was broth microdilution according to the method described in Standard M27-A2 (Reference method for broth dilution tests to determine the sensitivity of yeasts to antifungal therapy-second edition, NCCLS, volume 22 number 15, USA, 2002) as follows. […] Then the suspensions were diluted in culture medium RPMI-1640 (buffered with MOPS 0.165 mol/l) at a final concentration of 50 to 2500 CFU/mL. The diluted suspensions were inoculated in duplicate in a 96-well plate. The procedure was performed in a laminar flow. […] The incubation of fungi with these compounds was carried out for 48 hours at temperature of 30 to 35° C. […] We have agreed in this experiment that the turbid medium is the result of microbial growth and the presence of deposit and a clear medium represents the absence of microbial growth. The minimum inhibitory concentration (MIC) was defined as the lowest tested drug concentration that prevents any degree of […] growth.

[7] = tested on: Staphylococcus epidermidis 12228; assay: Broth microdilution MIC (M7-A6), bacteria, strain XVII; conditions: Staphylococcus epidermidis; strain XVII 12228, 24 hours incubation; read-out: MIC
Method: (§10) For the experiments of the present invention (i) yeast strains obtained from clinical isolates and laboratory isolates, and (ii) bacterial strains obtained from laboratory isolates were used, as described in Table 5 as follows. […] The compounds were dissolved in dimethyl sulfoxide (DMSO) to match the final concentration of the compound equal to or less than 1%. The methodology used to test the sensitivity of the agent was broth microdilution according to the method described in Standard M7-A6 (Methodology of sensitivity tests to antimicrobial agents by dilution for bacteria with aerobic growth-6th Edition: NCCLS, volume 23, No. 2, USA, 2003), as follows. […] Then the suspensions were diluted in Mueller Hinton culture medium to a final concentration of 5×10^4CFU/mL. The diluted suspensions were inoculated in 0.1 mL in duplicates in […] plates. The procedure was performed in a laminar flow. […] Incubation of fungi with these compounds was carried out for 24 hours at a temperature of 30 to 35° C. […] We have agreed in this experiment that the turbid medium is the result of microbial growth and the presence of deposit and a clear medium represents the absence of microbial growth. The minimum inhibitory concentration (MIC) was defined as the lowest tested drug concentration that prevents any degree of bacterial growth.

[8] = tested on: Staphylococcus aureus 6538; assay: Broth microdilution MIC (M7-A6), bacteria, strain XVIII; conditions: Staphylococcus aureus; strain XVIII 6538, 24 hours incubation; read-out: MIC
Method: as §10

[9] = 96 h, strain II 2, reading Day 4, average of four experiments
[10] = 168 h, strain II 2, reading Day 7, average of four experiments
[11] = 96 h, strain V 28188, reading Day 4, average of four experiments
[12] = 168 h, strain V 28188, reading Day 7, average of four experiments
[13] = 96 h, strain VI 373, reading Day 4, average of four experiments
[14] = 168 h, strain VI 373, reading Day 7, average of four experiments
[15] = 96 h, strain VIII 455, reading Day 4, average of four experiments
[16] = 168 h, strain VIII 455, reading Day 7, average of four experiments

Work on `Clc1ccc(COC(Cn2ccnc2)c2ccc(Cl)cc2Cl)c(Cl)c1` (centres unmarked) [Miconazole, miconazole, reference compound] yielded an MIC [1, 9] of 1 mg/L (≈ 2.4 µM), an MIC [1, 10] of 1 mg/L (≈ 2.4 µM) and an MIC [2, 11] of 0.03 mg/L (≈ 0.0721 µM). For the same molecule, the MIC [2, 12] was 0.06 mg/L (≈ 0.144 µM), the MIC [3, 13] was 0.5 mg/L (≈ 1.2 µM) and the MIC [3, 14] was 1 mg/L (≈ 2.4 µM). For the same molecule, the MIC [4, 15] was over 16 mg/L, the MIC [4, 16] was over 16 mg/L and the “Resistance or sensitivity of the strain to the agent (in words)” value [4] was “resistant”. It also gave an MIC [5] of 1 mg/L (≈ 2.4 µM), an MIC [6] of 4 mg/L (≈ 9.61 µM) and an MIC [7] of 2 mg/L (≈ 4.81 µM). It also gave an MIC [8] of 2 mg/L (≈ 4.81 µM).

`FC(F)(F)c1ccc(COC(Cn2ccnc2)c2ccc(Cl)cc2Cl)cc1` (centres unmarked) [BL-123, 1-[2-(2,4-dichlorophenyl)-2-{[4-(trifluoromethyl)benzyl]oxy}ethyl]-1H-imidazole] gave an MIC [1, 9] of 4 mg/L (≈ 9.63 µM), an MIC [1, 10] of 4 mg/L (≈ 9.63 µM) and an MIC [2, 11] of 0.03 mg/L (≈ 0.0722 µM). It also gave an MIC [2, 12] of 0.03 mg/L (≈ 0.0722 µM), an MIC [3, 13] of 0.125 mg/L (≈ 0.301 µM) and an MIC [3, 14] of 0.5 mg/L (≈ 1.2 µM). The MIC [4, 15] was 4 mg/L (≈ 9.63 µM), the MIC [4, 16] was 8 mg/L (≈ 19.3 µM) and the “Resistance or sensitivity of the strain to the agent (in words)” value [4] was “sensitive”. For the same molecule, the MIC [5] was 2 mg/L (≈ 4.82 µM), the MIC [6] was 8 mg/L (≈ 19.3 µM) and the MIC [7] was 4 mg/L (≈ 9.63 µM). It also gave an MIC [8] of 4 mg/L (≈ 9.63 µM).
